{
  "source": "patent US4547488A",
  "about": "“Antibiotic M43D, pharmaceutical compositions and method of use” (priority 1984, dated 1985)",
  "experiment_in_all_cases": "agar-dilution MIC",
  "assay_type_in_all_cases": "cell-based",
  "key": {"[1]": {"tested_on": "Streptococcus sp. group D 2041"}, "[2]": {"tested_on": "Haemophilus influenzae 76"}, "[3]": {"tested_on": "Klebsiella pneumoniae X68"}, "[4]": {"tested_on": "Streptococcus faecium ATCC 9790"}, "[5]": {"tested_on": "Haemophilus influenzae C.L."}, "[6]": {"tested_on": "Klebsiella pneumoniae KAE"}, "[7]": {"tested_on": "Streptococcus pyogenes C203"}},
  "data": [
    {"smiles": "CN[C@H](CC(C)C)C(=O)N[C@H]1C(=O)N[C@@H](CC(N)=O)C(=O)N[C@H]2C(=O)N[C@H]3C(=O)N[C@H](C(=O)N[C@H](C(=O)O)c4cc(O)cc(O)c4-c4cc3ccc4O)[C@H](O)c3ccc(c(Cl)c3)Oc3cc2cc(c3O[C@@H]2O[C@H](CO)[C@@H](O)[C@H](O)[C@H]2O[C@H]2C[C@](C)(N)[C@H](O)[C@H](C)O2)Oc2ccc(cc2Cl)[C@H]1O", "note": "[Vancomycin]", "values": [
      {"measurement": "MIC", "setting": "[1]", "result": 4, "unit": "µg/mL"},
      {"measurement": "MIC", "setting": "[2]", "result": 128, "unit": "µg/mL"},
      {"measurement": "MIC", "setting": "[3]", "result": "> 128", "unit": "µg/mL"},
      {"measurement": "MIC", "setting": "[4]", "result": 1, "unit": "µg/mL"},
      {"measurement": "MIC", "setting": "[5]", "result": 64, "unit": "µg/mL"},
      {"measurement": "MIC", "setting": "[6]", "result": "> 128", "unit": "µg/mL"},
      {"measurement": "MIC", "setting": "[7]", "result": 0.5, "unit": "µg/mL"}
    ]}
  ]
}
